The values below come from patent US9422240B2, “Partially saturated nitrogen-containing heterocyclic compound” (TAISHO PHARMACEUTICAL CO., LTD, priority 2012, dated 2016).

Where a name gives a salt, the structure may show the parent alone.

Assay [1] concerns the target T1, human PHD2 (Homo sapiens (Human), UniProt Q9GZT9). In words: Test 2: human PHD2 inhibitory activity, fluorescence polarization assay of HIF-1α peptide proline hydroxylation. In kind it is biochemical. The conditions noted are these: for inhibition at 1 µM: read-out: Percent inhibition (% at 1 μM); for IC50: human PHD2, fluorescence polarization assay, 20-min incubation at 30° C. Put shortly: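 A 19-mer HIF-1α peptide served as substrate, with the reaction started by 40 ng/well human PHD2 (cell lysate of NM_022051-transfected cells) and run 20 min at 30° C. before EDTA stop. Hydroxylated product bound anti-HIF-OH antibody, read by fluorescence polarization versus no-compound control.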

Assay [2] addresses T1, human PHD2. In words: Test 1: human PHD2 inhibitory activity, [14C]-2-oxoglutarate to [14C]-succinic acid radiometric assay with HIF-1α peptide. The class given is biochemical. The conditions noted are these: test compound's concentration 1 μM; Test 1, [14C]-2-oxoglutarate radiometric assay; read-out: Percent inhibition (% at 1 μM). The method, then:
(1) Expression and Preparation of Human PHD2
Human PHD2 was expressed in insect cells (HighFive cells). A registered sequence of human PHD2 (NM_022051) was introduced into the pFastBacl vector (Invitrogen), and the sequence was verified. The vector was introduced into Sf9 insect cells (Invitrogen) to acquire human PHD2 baculovirus. HighFive insect cells (Invitrogen) were infected with this recombinant virus and cultured at 27° C. for 72 hours; thereafter, a cell lysis solution containing various protease inhibitors was added and the cells were disrupted to form a suspension. The suspension of disrupted cells was centrifuged at 4° C. and 100,000×g for 30 minutes and the supernatant was recovered as a cell lysate.
(2) Measurement of Human PHD2 Inhibitory Activity
The activity of human PHD2 enzyme was measured with a substrate which is a 19-residue partial peptide based on the sequence of HIF-1α. Specifically, the conversion of 2-oxoglutarate to succinic acid which would occur simultaneously with the hydroxylation of a proline residue in the peptide with the PHD2 enzyme was utilized. To be more specific, [^14C]-2-oxogiutarate was added to the reaction system to initiate an enzymatic reaction and the [^14C]-2-oxoglutarate remaining after the reaction was bound to 2,4-dinitrophenylhydrazine (DNPH), with the resulting precipitate being removed by passage through a filter. Subsequently, radiation counting was conducted on the resulting [^14C]-succinic acid.
A test compound, HIF-1αpeptide and [^14C]-2-oxoglutarate were preliminarily added onto 96-well plates and reaction was initiated by adding a human PHD2 enzyme solution (4 μg/well). After 15-min incubation at 37° C., a DNPH-containing quench solution was added and the mixture was allowed to stand at room temperature for 30 minutes. Thereafter, an excess of non-radiolabelled 2-oxoglutarate was added and the mixture was allowed to stand at room temperature for 60 minutes. The resulting precipitate was removed by passage through a filter and the radiation count on the [^14C]-succinic acid was quantified (with MicroBeta). Radiation counting was conducted for each well and the human PHD2 inhibitory activity of each test compound was calculated on the basis of the values for the substrate-free group and the test compound-free group.

Setting [3] is: test compound's concentration 1 μM, Test 2, fluorescence polarization assay.

T1 sequence (Q9GZT9 whole entry): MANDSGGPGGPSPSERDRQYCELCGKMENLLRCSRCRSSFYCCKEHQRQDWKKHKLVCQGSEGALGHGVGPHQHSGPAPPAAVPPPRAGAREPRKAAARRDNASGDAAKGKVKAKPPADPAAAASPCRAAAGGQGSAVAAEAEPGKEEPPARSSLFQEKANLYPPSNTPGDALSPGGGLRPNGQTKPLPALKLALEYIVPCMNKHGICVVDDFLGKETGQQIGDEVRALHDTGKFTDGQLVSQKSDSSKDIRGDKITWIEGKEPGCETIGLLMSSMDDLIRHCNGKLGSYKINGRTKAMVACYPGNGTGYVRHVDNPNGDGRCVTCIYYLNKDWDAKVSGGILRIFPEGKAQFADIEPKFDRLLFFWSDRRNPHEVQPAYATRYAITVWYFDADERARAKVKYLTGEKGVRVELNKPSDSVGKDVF

For `Cc1ccc(CN2CCC(O)=C(C(=O)NCC(=O)O)C2=O)c(C)c1` [Ex. 1-60], the inhibition at 1 µM was 76% at human PHD2 [1] (setting [3]) and 66% on human PHD2 [2]. On to `O=C(O)CNC(=O)C1=C(O)C2(CCCCCC2)CN(Cc2ccc(-c3ccccc3)cc2)C1=O` [Ex. 1-14], for which the inhibition at 1 µM at human PHD2 [1] (setting [3]) is 36%; on human PHD2 [2], 21%. For `O=C(O)CNC(=O)C1=C(O)CCN(Cc2ccc(Cl)c(C(F)(F)F)c2)C1=O` [Ex. 1-74], the results for the inhibition at 1 µM on human PHD2 [1] (setting [3]) and at human PHD2 [2] were 86% and 80%, respectively. As to `O=C(O)CNC(=O)C1=C(O)CCN(Cc2ccccc2Oc2ccc(F)cc2)C1=O` [Ex. 1-290], the inhibition at 1 µM is 86% at human PHD2 [1] (setting [3]) and 63% at human PHD2 [2]. In the same order, the values of `Cc1ccc(CN2C(=O)C(C(=O)NCC(=O)O)=C(O)CC2(C)C)cc1` [Ex. 1-88] are 55% and 44%. As for `CC1CN(Cc2ccc(-c3ccccn3)cc2)C(=O)C(C(=O)NCC(=O)O)=C1O` (centres unmarked) [Ex. 1-93], the inhibition at 1 µM on human PHD2 [1] (setting [3]) was found to be 81%; on human PHD2 [2] it was 80%. For the molecule `Cc1ccc(-c2ccc(CN3CCC(O)=C(C(=O)NCC(=O)O)C3=O)cc2)cc1` [Ex. 2-1, N-({4-Hydroxy-1-[(4′-methylbiphenyl-4-yl)methyl]-2-oxo-1,2,5,6-tetrahydropyridin-3-yl}carbonyl)glycine], the results for the inhibition at 1 µM at human PHD2 [1] (setting [3]) and on human PHD2 [2] were 88% and 93%, respectively.

As for `CC1CC(O)=C(C(=O)NCC(=O)O)C(=O)N1CC1CCC(c2ccccc2)CC1` (centres unmarked) [Ex. 1-80], the inhibition at 1 µM on human PHD2 [1] (setting [3]) amounted to 88%; at human PHD2 [2], 76%. In the same order, the values of `CCC1(CC)CC(O)=C(C(=O)NCC(=O)O)C(=O)N1Cc1ccc(C(F)(F)F)cc1` [Ex. 1-183] are 50% and 39%. `O=C(O)CNC(=O)C1=C(O)CC2(CCOCC2)N(Cc2ccc(-c3ccccn3)cc2)C1=O` [Ex. 1-105]: the figures for the inhibition at 1 µM at human PHD2 [1] (setting [3]) and on human PHD2 [2] were 83% and 78%, respectively. Take `Cc1ccc(CN2C(=O)C(C(=O)NCC(=O)O)=C(O)CC2(C)C)cc1Cl` [Ex. 1-202]: the inhibition at 1 µM on human PHD2 [1] (setting [3]) came out at 69%; at human PHD2 [2], 58%.

As for `Cc1ccc(Oc2ccc(CN3CC4(CCC4)C(O)=C(C(=O)NCC(=O)O)C3=O)cn2)cc1` [Ex. 1-278], the inhibition at 1 µM was determined as 94% on human PHD2 [1] (setting [3]) and 93% on human PHD2 [2]. Turning to `O=C(O)CNC(=O)C1=C(O)CCN(CC2CCC(c3ccccc3)CC2)C1=O` (centres unmarked) [Ex. 1-26], the inhibition at 1 µM on human PHD2 [2] turned out to be 90%. Turning to `O=C(O)CNC(=O)C1=C(O)CCN(Cc2ccc(O)c(Cl)c2)C1=O` [Ex. 1-466, N-{[1-(3-Chloro-4-hydroxybenzyl)-4-hydroxy-2-oxo-1,2,5,6-tetrahydro-3-pyridinyl]carbonyl}glycine disodium], the inhibition at 1 µM at human PHD2 [1] (setting [3]) turned out to be 77%. At human PHD2 [1], `Cc1cc(Oc2ccc(CN3CCC(O)=C(C(=O)NCC(=O)O)C3=O)cn2)ccc1F` [Ex. 1-368] gave an IC50 of 41 nM. Besides, the inhibition at 1 µM at human PHD2 [1] (setting [3]) is 101%.

At human PHD2 [1], `O=C(O)CNC(=O)C1=C(O)CCN(Cc2cnc(Oc3ccc(Cl)cc3)cn2)C1=O` [Ex. 1-440] had an IC50 of 39 nM. On human PHD2 [1] (setting [3]), the inhibition at 1 µM was found to be 98%. As to `O=C(O)CNC(=O)C1=C(O)CCN(C[C@H]2CC[C@H](Oc3ccc(C(F)(F)F)cc3)CC2)C1=O` [Ex. 1-403], the inhibition at 1 µM on human PHD2 [1] (setting [3]) was 102%. As for `CCc1ccc(O[C@H]2CC[C@H](CN3CCC(O)=C(C(=O)NCC(=O)O)C3=O)CC2)cc1` [Ex. 1-431], the inhibition at 1 µM on human PHD2 [1] (setting [3]) amounted to 99%. As for `Cc1ccc(-c2ccc(CN3CCC(O)=C(C(=O)NCC(=O)O)C3=O)cc2)cn1` [Ex. 2-4, N-({4-Hydroxy-1-[4-(6-methyl-3-pyridinyl)benzyl]-2-oxo-1,2,5,6-tetrahydro-3-pyridinyl}carbonyl)glycine sodium salt], the inhibition at 1 µM at human PHD2 [1] is 88%. Regarding `Cc1cc(CN2CCC(O)=C(C(=O)NCC(=O)O)C2=O)cnc1Oc1ccc(Cl)cc1` [Ex. 1-409], the IC50 at human PHD2 [1] is 25 nM. Besides, the inhibition at 1 µM at human PHD2 [1] (setting [3]) worked out at 98%. For `Cc1cc(CN2CCC(O)=C(C(=O)NCC(=O)O)C2=O)cnc1OCC(F)(F)F` [Ex. 1-410], the inhibition at 1 µM at human PHD2 [1] (setting [3]) was found to be 82%. For the molecule `COC[C@@H]1CC(O)=C(C(=O)NCC(=O)O)C(=O)N1Cc1ccc(OCC2CC2)cc1` [Ex. 6-34], the inhibition at 1 µM on human PHD2 [1] (setting [3]) worked out at 70%. Consider `O=C(O)CNC(=O)C1=C(O)C2(CCCCC2)CN(Cc2ccc(OCC3CC3)cc2)C1=O` [Ex. 6-23], for which, at human PHD2 [1] (setting [3]), the inhibition at 1 µM is 85%. Take `O=C(O)CNC(=O)C1=C(O)CCN(Cc2ccc(COc3ccc(C(F)(F)F)cn3)cc2)C1=O` [Ex. 1-424]: the inhibition at 1 µM on human PHD2 [1] (setting [3]) is 97%. For `O=C(O)CNC(=O)C1=C(O)CCN(C[C@H]2CC[C@H](Oc3ccc(C4CC4)cn3)CC2)C1=O` [Ex. 1-446], the inhibition at 1 µM on human PHD2 [1] (setting [3]) was found to be 94%.

Regarding `Cc1ccc(Oc2ncc(CN3CCC(O)=C(C(=O)NCC(=O)O)C3=O)cc2C)cn1` [Ex. 1-333], it took 92 nM to reach half-maximal inhibition at human PHD2 [1] (IC50). In addition, on human PHD2 [1] (setting [3]), the inhibition at 1 µM was 91%. Take `CN1CC2(CC1=O)CC(O)=C(C(=O)NCC(=O)O)C(=O)N2Cc1ccc(-c2ccccc2)cc1` (centres unmarked) [Ex. 1-315]: on human PHD2 [1] (setting [3]), the inhibition at 1 µM amounted to 81%.

`O=C(O)CNC(=O)C1=C(O)CCN(Cc2ccc(Oc3ccc(C4CC4)cn3)cc2)C1=O` [Ex. 1-404] displayed an IC50 on human PHD2 [1] of 56 nM. Further, the inhibition at 1 µM at human PHD2 [1] (setting [3]) came to 96%. Take `NC(=O)[C@@H]1CC(O)=C(C(=O)NCC(=O)O)C(=O)N1Cc1ccc(OCC2CC2)cc1` [Ex. 6-16]: the inhibition at 1 µM on human PHD2 [1] (setting [3]) turned out to be 26%. The same measure, in the same setting: the value for `CC(C)[C@H]1CC(O)=C(C(=O)NCC(=O)O)C(=O)N1Cc1ccc(OCC2CC2)cc1` [Ex. 6-27] was 51%; that for `O=C(O)CNC(=O)C1=C(O)CCN(Cc2ccc(O)cc2)C1=O` [Ex. 4-3, N-{[4-Hydroxy-1-(4-hydroxybenzyl)-2-oxo-1,2,5,6-tetrahydro-3-pyridinyl]carbonyl}glycine] was 72%. Same read-out and setting: the value for `O=C(O)CNC(=O)C1=C(O)C2(CCC2)CN(Cc2ccc(OC(F)(F)F)c(Cl)c2)C1=O` [Ex. 1-357] was 74%; that for `Cc1cc(C)n(COc2ccc(CN3CCC(O)=C(C(=O)NCC(=O)O)C3=O)cc2)n1` [Ex. 1-462] was 87%; that for `O=C(O)CNC(=O)C1=C(O)CCN(C[C@H]2CC[C@H](OCC3CCCC3)CC2)C1=O` [Ex. 1-448] was 92%. For the molecule `O=C(O)CNC(=O)C1=C(O)CCN(Cc2ccc(-c3ccc(O)nc3)cc2)C1=O` [Ex. 2-60], the inhibition at 1 µM on human PHD2 [1] (setting [3]) came to 96%. `O=C(O)CNC(=O)C1=C(O)CCN(Cc2ccc(C3CCCCC3)c(F)c2)C1=O` [Ex. 1-453]: the inhibition at 1 µM at human PHD2 [1] (setting [3]) was determined as 94%. As to `O=C(O)CNC(=O)C1=C(O)CCN(C[C@H]2C[C@H](Oc3ccc(C(F)(F)F)cc3)C2)C1=O` [Ex. 1-459], the inhibition at 1 µM on human PHD2 [1] (setting [3]) amounted to 96%. Regarding `Cc1cc(CN2CCC(O)=C(C(=O)NCC(=O)O)C2=O)ccc1OCC(F)(F)F` [Ex. 1-379], at human PHD2 [1] (setting [3]), the inhibition at 1 µM stood at 84%. As to `Cc1ccc(OCc2ccc(CN3CCC(O)=C(C(=O)NCC(=O)O)C3=O)cc2)cn1` [Ex. 1-415], the inhibition at 1 µM at human PHD2 [1] (setting [3]) is 94%. Take `O=C(O)CNC(=O)C1=C(O)CCN(C[C@H]2CC[C@H](OCCc3ccccc3)CC2)C1=O` [Ex. 1-447]: the inhibition at 1 µM at human PHD2 [1] (setting [3]) was 98%.

On to `CC1(C)CN(Cc2ccc(OC3CC3)cc2)C(=O)C(C(=O)NCC(=O)O)=C1O` [Ex. 1-359], for which, on human PHD2 [1] (setting [3]), the inhibition at 1 µM amounted to 69%. The same measure, in the same setting: the value for `CC1(C)CC(O)=C(C(=O)NCC(=O)O)C(=O)N1Cc1ccc(OCC(N)=O)cc1` [Ex. 6-25] was 49%; that for `Cc1cc(CN2CCC(O)=C(C(=O)NCC(=O)O)C2=O)ccc1OCc1ccccc1` [Ex. 1-381] was 92%; that for `O=C(O)CNC(=O)C1=C(O)CCN(C[C@H]2CC[C@@H](Oc3ccc(F)cc3)CC2)C1=O` [Ex. 1-434] was 85%. On to `CN(C)CCNC(=O)c1ccc(CN2CCC(O)=C(C(=O)NCC(=O)O)C2=O)cc1` [Ex. 1-345], for which the inhibition at 1 µM on human PHD2 [1] (setting [3]) turned out to be 55%. Regarding `Cc1ccc(-c2ccc(CN3CCC(O)=C(C(=O)NCC(=O)O)C3=O)cc2)nc1` [Ex. 2-5, N-({4-Hydroxy-1-[4-(5-methyl-2-pyridinyl)benzyl]-2-oxo-1,2,5,6-tetrahydro-3-pyridinyl}carbonyl)glycine sodium salt], the inhibition at 1 µM on human PHD2 [1] was determined as 97%. Take `Cn1nc2ccccc2c1COc1ccc(CN2CCC(O)=C(C(=O)NCC(=O)O)C2=O)cc1` [Ex. 1-463]: on human PHD2 [1] (setting [3]), the inhibition at 1 µM is 99%. `CN1CCN(c2ccc(CN3CCC(O)=C(C(=O)NCC(=O)O)C3=O)cc2)CC1` [Ex. 1-342]: at human PHD2 [1] (setting [3]), the inhibition at 1 µM came out at 57%.
